Experimental data taken from publication PMC10373102 (Molecular microbiology, 2011).

Molecular target: T1, CtdQ; acylating aldehyde dehydrogenase (ADA) (Acidovorax sp. JS42, UniProt A1W2K2)
T1 sequence (A1W2K2 1-302): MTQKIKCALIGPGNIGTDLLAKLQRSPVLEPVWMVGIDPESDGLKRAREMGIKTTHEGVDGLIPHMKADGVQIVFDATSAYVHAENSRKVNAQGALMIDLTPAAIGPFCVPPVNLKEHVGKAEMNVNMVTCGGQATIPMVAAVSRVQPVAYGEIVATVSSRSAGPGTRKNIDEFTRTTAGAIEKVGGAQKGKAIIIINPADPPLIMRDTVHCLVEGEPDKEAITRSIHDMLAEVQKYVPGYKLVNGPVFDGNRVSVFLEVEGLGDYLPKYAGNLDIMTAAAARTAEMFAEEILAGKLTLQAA
Assay: enzyme assay in extract of E. coli expressing ctdQ
Format: biochemical
Settings: details in SI

SMILES | enzyme assay in extract of E. coli expressing ctdQ
CC=O [acetaldehyde] | the enzyme was equally active with acetaldehyde and propionaldehyde
CCC=O [propionaldehyde] | the enzyme was equally active with acetaldehyde and propionaldehyde
